Results taken from patent publication EP4506003A1, “HALOGEN DERIVATIVES OF (4´,5´- METHYLENEDIOXYPHENYL)-6,7-DIMETHOXY-1,2,3,4-TETRAHYDROISOQUINOLINE FOR USE IN THE TREATMENT OF LEUKEMIA” (S.Yu Yunusov Institute of Chemistry of Plant Substances of …, priority 2023, dated 2025).
Marks after values point to notes of the source that are not given here.

Tests used:
lung cancer H460 = details: cited from earlier work
[1] = test system: blood of patients with AML; experiment: Hemogram of blood of patients with AML after exposure (Example 14, Table 11); format: cell-based
Excerpt: (§4) The effect of compounds F1 and F2 was studied on biological material (blood) of patients with hematological malignancies (leukemia), as well as for individual nosologies, in particular, patients with leukemia (combined group) (n=224), T-ALL (n=84), B-ALL (n=100), ALL (n=100), AML (n= 98), AML (n=94) and AML (n= 98) were studied. A total of 798 blood samples from patients with leukemia were examined.
(§5) The drugs Cytosar (Alexan) (Ebewe Pharma, Austria) and doxorubicin (Naprod, Mumbai, India) recommended by WHO for the treatment of the above oncohematological diseases were used as comparison drugs.
(§6) 5 ml of venous blood from sick and conditionally healthy individuals were collected into Vacutainer tubes with the addition of EDTA (Himedia, India).
(§7) The resulting blood was divided into aliquots of 1 ml and 10 µl (10 µg/ml) of the studied drugs (cytosar, doxorubicin, F1 and F2) were added to each tube.

Rat liver hepatocytes = experiment: MTT cytotoxicity on hepatocytes; format: cell-based; details: Rattus norvegicus, Hepatocyte, 24 hours
Experimental: (§1) The cytotoxic properties of the compounds were determined in vitro using the MTT method in 96-well plates (Costar, USA). […] Rat liver hepatocytes were obtained according to the method, human blood mononuclear cells - according to [23]. Fibroblast cells were obtained according to the method of [24] with some modifications. Cell cultures were subcultured into 96-well plates according to the method of [21] by adding 100 μl of nutrient medium. The CCRF-CEM suspension culture was poured into a tube, centrifuged at 800 rpm for 10 minutes, and the supernatant was discarded. […] Data obtained in 3 independent experiments were expressed as the mean value for each concentration ± standard error of the mean, relative to the control values (cells without test compounds). The cytotoxic effect of each of the studied compounds was compared with the effect of the cytostatic Cisplatin-Naprod (India), containing cisplatin as an active component. Table 1: IC50 μM value for test compounds

[2] = test system: blood of patients with leukemia (combined group); experiment: Hemogram of blood of patients with leukemia (combined group) after exposure; format: cell-based
Excerpt: as §4, §5, §6, §7

[3] = test system: blood of patients with T-ALL; experiment: Hemogram of blood of patients with T-ALL after exposure; format: cell-based
Excerpt: as §4, §5, §6, §7

[4] = test system: blood of patients with B-ALL; experiment: Hemogram of blood of patients with B-ALL after exposure; format: cell-based
Experimental: A total of 798 blood samples from patients with leukemia were examined.
as §5, §6, §7

[5] = test system: blood of patients with ALL; experiment: Hemogram of blood of patients with ALL after exposure; format: cell-based
Experimental: as §4, §6, §7

[6] = test system: blood of patients with AML; experiment: Hemogram of blood of patients with AML after exposure (Example 13, Table 10; also OMML); format: cell-based
Experimental: as §5, §6, §7

fibroblasts = experiment: MTT cytotoxicity on fibroblasts; format: cell-based; details: Fibroblast, 24 hours
Experimental: as §1

[7] = test system: CCRF-CEM (CCL-119) (T-lymphoblastic leukemia); experiment: MTT cytotoxicity on CCRF-CEM cells; format: cell-based; details: Homo sapiens, 24 hours
Experimental: as §1

[8] = Acute toxicity study (LD50); details: mouse, in vivo, ip
Experimental: (§2) We studied the acute toxicity of compound F1 in vivo. The experiments were carried out on outbred white mice of both sexes weighing 18-20 g (24 pcs.). The animals were divided into groups of 12 mice each. The compound was dissolved in DMSO and then adjusted to the desired concentration with 0.9% NaCl solution and administered intraperitoneally and subcutaneously in a dose range from 5.0 to 200.0 mg/kg. […] The maximum relative error of the applied dose was no more than 5%.
(§3) We studied the acute toxicity of compound F2 in vivo. The experiments were carried out on outbred white mice of both sexes weighing 18-20 g (24 pcs.). The animals were divided into groups of 12 mice each. The compound was dissolved in DMSO and then brought to the desired concentration with 0.9% NaCl solution and administered intraperitoneally and subcutaneously to animals in a dose range from 5.0 to 200.0 mg/kg. […] The maximum relative error of the administered dose was no more than 5%.

outbred white mice = experiment: Acute toxicity study (LD50)
Experimental: as §2, §3

[9] = test system: blood of patients with AML; experiment: Hemogram of blood of patients with AML after exposure (Example 12, Table 9); format: cell-based
Experimental: as §5, §6, §7

cervical carcinoma cells = details: read-out: CE50 dose; cited from earlier work
[10] = AML (Example 14), compared to cytosar
[11] = AML (Table 11), 10 µg/ml, 3 hours, 37.0°C
[12] = AML (Example 13), compared with doxorubicin
[13] = AML (Table 10), 10 µg/ml, 3 hours, 37.0°C
[14] = AML (Table 9), 10 µg/ml, 3 hours, 37.0°C

C/C=C(/C)C(=O)OC[C@H]1C2=C(C[C@H]3[C@H]4C5=C(C[C@@H]([C@H](C#N)N13)N4C)C(=O)C(C)=C(OC)C5=O)C(=O)C(C)=C(OC)C2=O [renieramycin M]
IC50 (lung cancer H460): 40 µM

COc1cc2c(cc1OC)C(c1cc3c(cc1Br)OCO3)NCC2 (stereo not shown) [Compound F1, 1-(2'-bromo-4',5'-methylenedioxyphenyl)-6,7-dimethoxy-1,2,3,4-tetrahydroisoquinoline]
percentage of blasts lower [1, 10]: 4.1% | percentage of monocytes lower [1, 10]: 2.4 times | percentage of destroyed cells higher ([1]; AML (Example 14), than after Cytosar): 1.8 times | Band (s/n) neutrophils [1, 11]: 1,6±0,5% | Blasts [1, 11]: 55,4±3,1 % | Destroyed cells [1, 11]: 22,6±2,3*^ % | Eosinophils [1, 11]: 0,0±0,0% | Lymphocytes [1, 11]: 10,1±1,0% | Monocytes [1, 11]: 2.0±0,6^ % | Myelocytes [1, 11]: 0,9±0,3% | Promyelocytes [1, 11]: 0,0±0,0% | Segmented (s/i) neutrophils [1, 11]: 9,6±1,7% | IC50 (Rat liver hepatocytes): > 100 µM | Band (s/n) neutrophils ([2]; 10 µg/ml, 3 hours, 37.0°C): 2,5±0,3 % | Blasts ([2]; 10 µg/ml, 3 hours, 37.0°C): 65,7±2,3 % | Destroyed cells ([2]; 10 µg/ml, 3 hours, 37.0°C): 14,8±1,8*^ # % | Eosinophils ([2]; 10 µg/ml, 3 hours, 37.0°C): 4,0±0,6 % | Lymphocytes ([2]; 10 µg/ml, 3 hours, 37.0°C): 12,0±0,9% | Monocytes ([2]; 10 µg/ml, 3 hours, 37.0°C): 4,9±0,6 % | Myelocytes ([2]; 10 µg/ml, 3 hours, 37.0°C): 4,0±0,5 % | Promyelocytes ([2]; 10 µg/ml, 3 hours, 37.0°C): 5,0±0,6^ % | Segmented (s/i) neutrophils ([2]; 10 µg/ml, 3 hours, 37.0°C): 7,0±0,8% | decrease in the content of blasts ([2]; versus Control group): 10.7% | increase in the percentage of neutrophils ([2]; versus control): 1.8 times | increase in the proportion of destroyed cells ([2]; versus control): 9.3% | increase in the proportion of eosinophils ([2]; versus control): 2.7 times | Band (s/n) neutrophils ([3]; 10 µg/ml, 3 hours, 37.0°C): 0.0±0.0% | Blasts ([3]; 10 µg/ml, 3 hours, 37.0°C): 68,9±1,7 % | Destroyed cells ([3]; 10 µg/ml, 3 hours, 37.0°C): 16,9±1,1*^ # % | Eosinophils ([3]; 10 µg/ml, 3 hours, 37.0°C): 0,0±0,6% | Lymphocytes ([3]; 10 µg/ml, 3 hours, 37.0°C): 9,1±1,0% | Monocytes ([3]; 10 µg/ml, 3 hours, 37.0°C): 1,3±0,3 % | Myelocytes ([3]; 10 µg/ml, 3 hours, 37.0°C): 0,0±0,0% | Promyelocytes ([3]; 10 µg/ml, 3 hours, 37.0°C): 0,0±0,0% | Segmented (s/i) neutrophils ([3]; 10 µg/ml, 3 hours, 37.0°C): 3.9±0,4 % | decrease in p/i neutrophils ([3]; comparator not stated): 1.7 times | increase in the proportion of destroyed cells ([3]; compared with cytosar): 1.9 times | increase in the proportion of destroyed cells ([3]; compared with doxorubicin): 1.3 times | decrease in the content of blasts [4]: 1.16 times | increase in the proportion of destroyed cells [4]: 4.1 times | Band (s/n) neutrophils ([4]; 10 µg/ml, 3 hours, 37.0°C): 1,4±0,4% | Blasts ([4]; 10 µg/ml, 3 hours, 37.0°C): 59,0±2,9 % | Destroyed cells ([4]; 10 µg/ml, 3 hours, 37.0°C): 12,6±2,0 % | Eosinophils ([4]; 10 µg/ml, 3 hours, 37.0°C): 0,2±0,1% | Lymphocytes ([4]; 10 µg/ml, 3 hours, 37.0°C): 13,5±1,7 % | Monocytes ([4]; 10 µg/ml, 3 hours, 37.0°C): 3,5±0,8 % | Myelocytes ([4]; 10 µg/ml, 3 hours, 37.0°C): 0,5±0,2% | Promyelocytes ([4]; 10 µg/ml, 3 hours, 37.0°C): 0,0±0,0% | Segmented (s/i) neutrophils ([4]; 10 µg/ml, 3 hours, 37.0°C): 9,4±0,9 % | Band (s/n) neutrophils ([5]; 10 µg/ml, 3 hours, 37.0°C): 0,3±0,1% | Blasts ([5]; 10 µg/ml, 3 hours, 37.0°C): 68,4±2,7*^ % | Destroyed cells ([5]; 10 µg/ml, 3 hours, 37.0°C): 12,9±1,7*^ % | Eosinophils ([5]; 10 µg/ml, 3 hours, 37.0°C): 0,0±0,0% | Lymphocytes ([5]; 10 µg/ml, 3 hours, 37.0°C): 12,6±1,1 % | Monocytes ([5]; 10 µg/ml, 3 hours, 37.0°C): 1,8±0,4% | Myelocytes ([5]; 10 µg/ml, 3 hours, 37.0°C): 0,0±0,0% | Promyelocytes ([5]; 10 µg/ml, 3 hours, 37.0°C): 0,0±0,0% | Segmented (s/i) neutrophils ([5]; 10 µg/ml, 3 hours, 37.0°C): 4,2±1,0 % | percentage of destroyed cells higher ([5]; compared to cytosar): 2.7 times | difference in the level of blast cells ([5]; compared with cytosar): 1.15 times | decrease in the percentage of myelocytes ([6]; AML (Example 13)): 2.5 times | decrease in the proportion of blasts ([6]; AML (Example 13)): 1.6% | increase in the proportion of destroyed cells ([6]; AML (Example 13)): 5.3 times | increase in the proportion of neutrophils ([6]; AML (Example 13)): 2.0 times | proportion of destroyed cells higher ([6]; AML (Example 13), compared with Cytosar): 2.4 times | myelocytes lower [6, 12]: 1.5 times | proportion of destroyed cells higher [6, 12]: 1.2 times | percentage of myelocytes lower ([6]; AML (Example 13), relative to cytosar): 6.15 times | Band (s/n) neutrophils [6, 13]: 2,8±0,3% | Blasts [6, 13]: 51,1±2,2% | Destroyed cells [6, 13]: 18,7±1,3*^ # % | Eosinophils [6, 13]: 0,8±0,3% | Lymphocytes [6, 13]: 6,2±0,6% | Monocytes [6, 13]: 1,4±0,2 % | Myelocytes [6, 13]: 2,6±0,5 % | Promyelocytes [6, 13]: 0,0±0,0% | Segmented (s/i) neutrophils [6, 13]: 16,6±1,3 % | IC50 (fibroblasts): > 100 µM | IC50 [7]: 36.6 µM | LD50 at 168 h [8]: 240 ± 13.8 mg/kg | toxicity class (outbred white mice; classified from LD50): toxicity class 3 (moderately toxic) | LD50 dose (outbred white mice; intraperitoneal, mice, observed for a week, 10080 min): 240,0±13,8 mg/kg | LD50 value, times higher than cytosar (cytarabine) (outbred white mice; relative to cytosar): 57 times | LD50 value, times higher than doxorubicin (outbred white mice; relative to doxorubicin): 22 times | decrease in the percentage of blasts ([9]; AML (Example 12)): 1.2 times | increase in the level of destroyed cells ([9]; AML (Example 12)): 4.5 times | increase in the proportion of mature differentiated neutrophils ([9]; AML (Example 12)): 2.6 times | increase in the percentage of destroyed cells ([9]; AML (Example 12), compared with cytosar): 2.0 times | decrease in the percentage of destroyed cells ([9]; AML (Example 12), compared with doxorubicin): 2.3 times | Band (s/n) neutrophils [9, 14]: 1,2±0,3% | Blasts [9, 14]: 63,6±2,3 % | Destroyed cells [9, 14]: 12,7±1,2*^ # % | Eosinophils [9, 14]: 0,4±0,2% | Lymphocytes [9, 14]: 10,7±1,1% | Monocytes [9, 14]: 3,0±0,7% | Myelocytes [9, 14]: 1,2±0,6% | Promyelocytes [9, 14]: 0,3±0,2% | Segmented (s/i) neutrophils [9, 14]: 7,0±0,7 %

CS(=O)(=O)N1CCC(Nc2n[nH]c3c2nc(-c2c(F)cccc2F)c2cc(C(N)=O)ccc23)CC1 [5-(2,6-difluorophenyl)-3-{[1-(methylsulfonyl)piperidin-4-yl]amino}-1H-pyrazolo[4,3-c]isoquinoline-7-carboxamide]
EC50 (cervical carcinoma cells): 259 nM
